Reference: patent US8933106B2, “2-(4-substituted phenylamino) polysubstituted pyridine compounds as inhibitors of non-nucleoside HIV reverse transcriptase, preparation methods and uses thereof” (Institute of Pharmacology and Toxicology Academy of …, priority 2008, dated 2015)
Converted amounts (≈) assume the structure as drawn.

Assays:
Format in all cases: cell-based
HIV virus (IIIB) = experiment: Anti-HIV activity test (H9 cell model), P24 antigen ELISA; conditions: for SI(CC50/EC50): H9 cells, ratio of toxicity CC50 value to activity EC50 value; for EC50: Human immunodeficiency virus 1, 96 h, H9 cells infected with HIV (IIIB), 4 days, P24 antigen
Description: (§1) Please refer to the document (J. Med. Chem. 2004, 47, 756-760). Lymphocytes H9 were cultivated in culture medium 1640, under the conditions of 5% CO2, 37° C. The test compound was initially dissolved in DMSO, and then diluted with culture medium to conventional screening concentrations: 100, 20, 4, 0.8 μg/mL. The cultivated H9 cells were divided into two portions, one of which was infected with HIV virus (IIIB) (m.i.o. 0.1-0.01 infectious Units/cell), and used for the determination of activity. Another portion of the cells, in which no virus, but merely culture medium was added, was used for the determination of toxicity. After having been cultivated under completely the same conditions (37° C., 5% CO2) for 4 h, the two portions of cells were washed with fresh culture medium for 3 times, and then respectively added to different concentrations of test samples as formulated or to blank culture medium (the latter is positive infection control or negative drug control), while using AZT as positive drug control. All of these cells were cultivated under the conditions of 5% CO2, 37° C. for 4 days. On the 4th day, the cell membranes of the cells infected with virus were firstly removed, and the cytosol was tested by using P24 antigen ELISA assay to determine the activity of the samples, which was expressed as EC50. EC50 meant an effective concentration at which 50% of virus replication was inhibited. The portion of cells in which no virus was added was tested by using cytometry to determine the toxicity of the samples, which was expressed as CC50. CC50 meant a concentration at which 50% of living cells were killed.

[1] = Toxicity in uninfected H9 cells; conditions: human, uninfected H9 lymphocytes, no virus
Description: as §1, with “All of these cells were cultivated under the conditions of 5% CO2, 37° C. for 4 days.” left out, “EC50 meant an effective concentration at which 50% of virus replication was inhibited.” left out, “CC50 meant a concentration at which 50% of living cells were killed.” left out

HIV-1IIIB virus strain = experiment: Anti-HIV activity test (MT-2 cell model), p24 antigen ELISA; conditions: MT-2 cells; for EC50: Human immunodeficiency virus 1, MT2, HIV-1IIIB, 4th day, p24 antigen; for SI(CC50/EC50): ratio of toxicity CC50 value to activity EC50 value
Description: Please refer to the document (Jiang, S., et al. Antimicrob. Agents Chemother. 2004, 48, 4349-4359). In a 96-pore cell culture plate, 50 μl of different concentrations of compound solutions were respectively mixed with equal-volume of HIV-1IIIB virus strain (100 TCID50), and incubated at 37° C. for 30 min, and then 100 μl MT-2 cell (1×10^5/mL, RPIM 1640 culture medium containing 10% serum) was added, and mixed homogenously, followed by incubation at 37° C. overnight. On the second day, 150 μl of the supernatant was sucked out, and equal-volume of fresh culture medium was replenished, followed by further incubation at 37° C. for 3 days. On the 4th day, cytopathic effect (CPE) was recorded. Thereafter, 100 μl of culture supernatant was sucked out, virus particles were split using 5% Triton X-100, and p24 antigen therein was tested by using ELISA assay. Briefly, a ELISA plate was coated with HIVIG (2 μg/mL), and blocked with 1% fat-free milk, then a virus lysate was added therein, followed by incubation at 37° C. for 60 min. After fully washing the plate, anti-p24 monoclonal antibody-183-12H-5C, biotin-labeled goat antimouse antibody and […]-labeled horseradish peroxidase were added in sequence. Then, after developing with TMB, OD was tested at 450 nm. The 50% effective concentration (EC50) of the compound was calculated using CalcuSyn software.

[2] = Cytotoxicity test of the compound (MT-2 cells, XTT); conditions: human, 4th day
Description: Please refer to the document (Jiang, S., et al. Antimicrob. Agents Chemother. 2004, 48, 4349-4359). In a 96-pore cell culture plate, 50 μl of different concentrations of compound solutions were respectively mixed with equal-volume of PBS, and incubated at 37° C. for 30 min, and then 100 μl MT-2 (or H9) cells (1×10^5/mL, RPIM 1640 culture medium containing 10% serum) was added, and mixed homogenously, followed by incubation at 37° C. overnight. On the second day, 150 μl of the supernatant was sucked out, and equal-volume of fresh culture medium was replenished, followed by further incubation at 37° C. for 3 days. On the 4th day, 50 μl of a XTT solution (1 mg/mL) containing PMS as freshly prepared was added. After 4 h, OD at 450 nm was tested. The 50% cytotoxicity concentration (CC50) of the compound was calculated using CalcuSyn software.

What does the source list for Cc1cc(Br)cc(C)c1Oc1ccc([N+](=O)[O-])c(Nc2ccc(C#N)cc2)n1 [Compound I-1, 2-(4-cyanophenylamino)-6-(2,6-dimethyl-4-bromophenoxy)-3-nitropyridine]?
SI(CC50/EC50) (HIV virus (IIIB)): >774; EC50 (HIV virus (IIIB)): < 0.025 µg/mL; CC50 at 4 days [1]: 19.4 µg/mL (≈ 44.1 µM); EC50 (HIV-1IIIB virus strain): 0.52 µg/mL (≈ 1.18 µM); SI(CC50/EC50) (HIV-1IIIB virus strain): 62; CC50 at 4 days [2]: 32.2 µg/mL (≈ 73.4 µM)

What does the source list for Cc1cc(C#N)cc(C)c1Oc1ccc([N+](=O)[O-])c(Nc2ccc(C#N)cc2)n1 [Compound I-2, 2-(4-cyanophenylamino)-6-(2,6-dimethyl-4-cyanophenoxy)-3-nitropyridine]?
SI(CC50/EC50) (HIV virus (IIIB)): >10,000; EC50 (HIV virus (IIIB)): 0.0025 µg/mL (≈ 0.00649 µM); CC50 at 4 days [1]: > 25 µg/mL; EC50 (HIV-1IIIB virus strain): 0.052 µg/mL (≈ 0.135 µM); SI(CC50/EC50) (HIV-1IIIB virus strain): 371; CC50 at 4 days [2]: 19.3 µg/mL (≈ 50.1 µM)
